According to patent publication US6689938B2, “Method for treatment of insulin resistance in obesity and diabetes” (Oklajoma Medical Research Foundation, priority 2000, dated 2004):

Columns and labels:
Format in all cases: in vivo, mouse
[1] = tested on: POMC null mutants and wildtype littermates; test: Corticosterone supplementation in drinking water, blood glucose levels; conditions: 25 μg per mL in drinking water for 3½ months, starting at 3 months of age; POMC null mutants and wildtype females
Procedure: (§1) In the experiment illustrated in FIG. 7, POMC null mutants and wildtype littermate females, 5 per group, received drinking water containing corticosterone (25 μg per mL) or nothing in addition for 3½ months, starting at 3 months of age. Blood glucose levels were determined before and after corticosterone supplementation.

[2] = tested on: POMC null mutants and wildtype mice; test: Insulin tolerance test after corticosterone supplementation
Procedure: In this experiment, illustrated in FIG. 6, food was taken away in the morning from 5 month old females, 5 per group. 6 hrs later, the mice were injected with insulin (Human insulin, 1 Unit/kg, i.p.). Blood was collected at times indicated and glucose measured using a Glucometer.
as §1

[3] = tested on: POMC mutants and wildtype mice; test: Insulin tolerance test after MSH or ACTH treatment; conditions: for glucoregulatory response / ability of POMC null mice: peripheral administration to POMC null mice
Procedure: In this experiment, illustrated in FIG. 9, glucose was measured in 4-6 month old female mice, wildtypes and POMC mutants, 5 mice per group. Mice were fasted for 5 hours. Each genotype (wildtype +/+and mutant −/−) received either: (1) 0.1 mL saline i.p.; (2) 0.1 mL saline containing 1 μg α-MSH i.p.; or (3) 0.1 mL saline containing 1 μg ACTH s.c.
One hour later, human insulin (0.5 mIU/g body weight) was injected intraperitoneally in all mice, and glucose was measured at the indicated intervals in blood collected from a tail nick.

Molecule: C[C@]12C[C@H](O)[C@H]3[C@@H](CCC4=CC(=O)CC[C@@]43C)[C@@H]1CC[C@@H]2C(=O)CO [corticosterone]
- induction of diabetes (blood glucose levels before and after supplementation) [1]: does not induce diabetes
- counterregulatory response in insulin tolerance test ([2]; POMC mutants versus wildtype mice): lag behind the wildtype mice in their counterregulatory response in the same manner as without corticosterone supplementation
- blood glucose levels in insulin tolerance test ([2]; both wildtypes and mutants, versus untreated group): do not fall to as low a level as in the untreated group

Molecule: Ac-Ser-Tyr-Ser-Met-Glu-His-Phe-Arg-Trp-Gly-Lys-Pro-Val-NH2 [α-MSH]
- blood glucose levels in insulin tolerance test, treated POMC mutants versus wildtype littermates ([3]; 1 μg α-MSH i.p. one hour before human insulin 0.5 mIU/g i.p., 4-6 month old females fasted 5 hours): not significantly different
- insulin resistance in the POMC null mouse ([3]; administration to the POMC null mouse): induces insulin-resistance
- glucoregulatory response / ability of POMC null mice [3]: restored the glucoregulatory ability
- glucoregulatory response / ability of POMC null mice ([3]; listed as melanocortin stimulating hormone (MSH)): nearly normalizes the glucoregulatory response
